In the supplement of paper PMC10307832:

Key:
Assay in all cases: relative viability (nuclei count vs DMSO), 5 days (fraction); higher = more cells survive
Gemcitabine = compound: Nc1ccn([C@@H]2O[C@H](CO)[C@@H](O)C2(F)F)c(=O)n1 [Gemcitabine]
Procedure, shortened: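 Five library-drug doses, separated by factors of √10, were pinned into 1536-well plates holding lung cancer cell lines after an overnight stay at 37 °C. Cells were fixed, permeabilised and Hoechst-stained in one step after 5 days without medium change, then imaged at 4×. Viability compares treated-well with vehicle-well nuclei, counted in MetaXpress, as a median across plates. Passing plates had control CV below 25% and at least one doubling.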

Gemcitabine + Foretinib = compound: Nc1ccn([C@@H]2O[C@H](CO)[C@@H](O)C2(F)F)c(=O)n1 [Gemcitabine] + COc1cc2c(Oc3ccc(NC(=O)C4(C(=O)Nc5ccc(F)cc5)CC4)cc3F)ccnc2cc1OCCCN1CCOCC1 [Foretinib] (partner 0.25 µM)
Procedure, shortened: (§1)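 Medians of duplicate plates are given as relative viability. That measure is the nuclei count in treated wells divided by the count in vehicle wells. Counts were taken on 4× images of lung cancer cell lines in 1536-well plates, 5 days after pin-tool dosing the day after seeding with one drug alone or a fixed anchor-drug dose plus five library-drug doses (not always all listed) in √10 steps.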

Gemcitabine + Pictilisib = compound: Nc1ccn([C@@H]2O[C@H](CO)[C@@H](O)C2(F)F)c(=O)n1 [Gemcitabine] + CS(=O)(=O)N1CCN(Cc2cc3nc(-c4cccc5[nH]ncc45)nc(N4CCOCC4)c3s2)CC1 [Pictilisib] (partner 1 µM)
Procedure, shortened: as §1

Gemcitabine + Olaparib = compound: Nc1ccn([C@@H]2O[C@H](CO)[C@@H](O)C2(F)F)c(=O)n1 [Gemcitabine] + O=C(c1cc(Cc2n[nH]c(=O)c3ccccc23)ccc1F)N1CCN(C(=O)C2CC2)CC1 [Olaparib] (partner 8 µM)
Procedure, shortened: as §1

Gemcitabine + Lapatinib = compound: Nc1ccn([C@@H]2O[C@H](CO)[C@@H](O)C2(F)F)c(=O)n1 [Gemcitabine] + CS(=O)(=O)CCNCc1ccc(-c2ccc3ncnc(Nc4ccc(OCc5cccc(F)c5)c(Cl)c4)c3c2)o1 [Lapatinib] (partner 2 µM)
Procedure, shortened: as §1

Gemcitabine + Linsitinib = compound: Nc1ccn([C@@H]2O[C@H](CO)[C@@H](O)C2(F)F)c(=O)n1 [Gemcitabine] + C[C@]1(O)C[C@@H](c2nc(-c3ccc4ccc(-c5ccccc5)nc4c3)c3c(N)nccn32)C1 [Linsitinib] (partner 1 µM)
Procedure, shortened: as §1

Gemcitabine + Crizotinib = compound: Nc1ccn([C@@H]2O[C@H](CO)[C@@H](O)C2(F)F)c(=O)n1 [Gemcitabine] + C[C@@H](Oc1cc(-c2cnn(C3CCNCC3)c2)cnc1N)c1c(Cl)ccc(F)c1Cl [Crizotinib] (partner 1 µM)
Procedure, shortened: as §1

Gemcitabine + Bortezomib = compound: Nc1ccn([C@@H]2O[C@H](CO)[C@@H](O)C2(F)F)c(=O)n1 [Gemcitabine] + CC(C)C[C@H](NC(=O)[C@H](Cc1ccccc1)NC(=O)c1cnccn1)B(O)O [Bortezomib] (partner 0.002 µM)
Procedure, shortened: as §1

Gemcitabine + Alpelisib = compound: Nc1ccn([C@@H]2O[C@H](CO)[C@@H](O)C2(F)F)c(=O)n1 [Gemcitabine] + Cc1nc(NC(=O)N2CCC[C@H]2C(N)=O)sc1-c1ccnc(C(C)(C)C(F)(F)F)c1 [Alpelisib] (partner 2 µM)
Procedure, shortened: as §1

Gemcitabine + Navitoclax = compound: Nc1ccn([C@@H]2O[C@H](CO)[C@@H](O)C2(F)F)c(=O)n1 [Gemcitabine] + CC1(C)CCC(c2ccc(Cl)cc2)=C(CN2CCN(c3ccc(C(=O)NS(=O)(=O)c4ccc(N[C@H](CCN5CCOCC5)CSc5ccccc5)c(S(=O)(=O)C(F)(F)F)c4)cc3)CC2)C1 [Navitoclax] (partner 0.5 µM)
Procedure, shortened: as §1

## NCI-H1299
Gemcitabine; 0.001 µM
  relative viability: 0.998
Gemcitabine; 0.003162 µM
  relative viability: 1.05
Gemcitabine; 0.01 µM
  relative viability: 1
Gemcitabine; 0.03162 µM
  relative viability: 1.02
Gemcitabine; 0.1 µM
  relative viability: 1.03
Gemcitabine + Foretinib; first compound 0.001 µM
  relative viability: 1.09
Gemcitabine + Foretinib; first compound 0.003162 µM
  relative viability: 1.08
Gemcitabine + Foretinib; first compound 0.01 µM
  relative viability: 1.09
Gemcitabine + Foretinib; first compound 0.03162 µM
  relative viability: 1.07
Gemcitabine + Foretinib; first compound 0.1 µM
  relative viability: 1.08
Gemcitabine + Pictilisib; first compound 0.001 µM
  relative viability: 0.637
Gemcitabine + Pictilisib; first compound 0.003162 µM
  relative viability: 0.728
Gemcitabine + Pictilisib; first compound 0.01 µM
  relative viability: 0.709
Gemcitabine + Pictilisib; first compound 0.03162 µM
  relative viability: 0.883
Gemcitabine + Pictilisib; first compound 0.1 µM
  relative viability: 0.655
Gemcitabine + Olaparib; first compound 0.001 µM
  relative viability: 0.984
Gemcitabine + Olaparib; first compound 0.003162 µM
  relative viability: 1.03
Gemcitabine + Olaparib; first compound 0.01 µM
  relative viability: 0.962
Gemcitabine + Olaparib; first compound 0.03162 µM
  relative viability: 1
Gemcitabine + Olaparib; first compound 0.1 µM
  relative viability: 0.937
Gemcitabine + Lapatinib; first compound 0.001 µM
  relative viability: 0.941
Gemcitabine + Lapatinib; first compound 0.003162 µM
  relative viability: 1.01
Gemcitabine + Lapatinib; first compound 0.01 µM
  relative viability: 0.962
Gemcitabine + Lapatinib; first compound 0.03162 µM
  relative viability: 0.938
Gemcitabine + Lapatinib; first compound 0.1 µM
  relative viability: 0.921
Gemcitabine + Linsitinib; first compound 0.001 µM
  relative viability: 0.987
Gemcitabine + Linsitinib; first compound 0.003162 µM
  relative viability: 1.01
Gemcitabine + Linsitinib; first compound 0.01 µM
  relative viability: 0.981
Gemcitabine + Linsitinib; first compound 0.03162 µM
  relative viability: 1
Gemcitabine + Linsitinib; first compound 0.1 µM
  relative viability: 0.972
Gemcitabine + Crizotinib; first compound 0.001 µM
  relative viability: 1.03
Gemcitabine + Crizotinib; first compound 0.003162 µM
  relative viability: 0.977
Gemcitabine + Crizotinib; first compound 0.01 µM
  relative viability: 0.973
Gemcitabine + Crizotinib; first compound 0.03162 µM
  relative viability: 0.995
Gemcitabine + Crizotinib; first compound 0.1 µM
  relative viability: 0.983
Gemcitabine + Bortezomib; first compound 0.001 µM
  relative viability: 1.03
Gemcitabine + Bortezomib; first compound 0.003162 µM
  relative viability: 1.07
Gemcitabine + Bortezomib; first compound 0.01 µM
  relative viability: 1
Gemcitabine + Bortezomib; first compound 0.03162 µM
  relative viability: 0.995
Gemcitabine + Bortezomib; first compound 0.1 µM
  relative viability: 1.07
Gemcitabine + Alpelisib; first compound 0.001 µM
  relative viability: 1.04
Gemcitabine + Alpelisib; first compound 0.003162 µM
  relative viability: 1.1
Gemcitabine + Alpelisib; first compound 0.01 µM
  relative viability: 1.03
Gemcitabine + Alpelisib; first compound 0.03162 µM
  relative viability: 1.05
Gemcitabine + Alpelisib; first compound 0.1 µM
  relative viability: 1.09
Gemcitabine + Navitoclax; first compound 0.001 µM
  relative viability: 1.02
Gemcitabine + Navitoclax; first compound 0.003162 µM
  relative viability: 1.08
Gemcitabine + Navitoclax; first compound 0.01 µM
  relative viability: 1.04
Gemcitabine + Navitoclax; first compound 0.03162 µM
  relative viability: 1.02
Gemcitabine + Navitoclax; first compound 0.1 µM
  relative viability: 1.06
